Test results as given in patent publication US7786257B2, “Signal-1/signal-2 bifunctional peptide inhibitors” (priority 2000, dated 2010).
Where no end group is shown, it is not given here. [ ]: non-standard residue; d: D form. Ahx = NCCCCCC(=O)O

Key:
[1] = system: NOD.Scid mice; test: NOD.Scid adoptive transfer model of diabetes progression (blood glucose); assay type: in vivo, mouse; conditions: 7 weeks post adoptive transfer; CD4+ T-cells from treated mice co-transferred with CD25-depleted inducer cells
[2] = system: live APC (spleenocytes) from NOD (I-A^g7), BALB/c, A.SW, A.BY mice; test: Flow cytometry of biotinylated peptide binding to live APC (spleenocytes) of inbred mouse strains; conditions: for percentage of high-density binding cells: biotinylated peptide 50 μM, overnight; for preferential binding to NOD APC compared with other strains (BALB/c, A.SW, A.BY): biotinylated peptide, live spleenocytes, flow cytometry
Experimental: Specifically, it was verified that the peptide binds to MHC molecules on live APC. Briefly, spleen cell density-gradient fractions (from mice), or PBL, or APC lines (from humans) were incubated in round bottom 96-well plates with increasing concentrations of individual biotinylated peptides at 37° C., 5% CO2 for 16 hours. Following binding of the BPI to the APC, Avidin-FITC was incubated with the cells on ice for 30 minutes, followed by biotinylated anti-Avidin for 1 hour, then again with Avidin-FITC. For BPI titrations, increasing concentrations (0.1-100 μM) of the biotinylated derivatives in sterile 0.5% BSA-PBS were incubated with the APC for 16 hours as above. […] Three-color analyses used Cy-Chrome or PE-conjugated antibodies to known surface markers of APC that were commercially available. Avidin-FITC and biotinylated anti-Avidin detection of the bound peptide was as previously described in Murray et al., 24 Eur. J. Immunol. 2337-2344 (1994); Murray; 19 Immunology Today 157-163; and Schountz et al., 157 The Journal of Immunology 3893-3901 (1996). Slight modifications of this method were used to test peptide inhibition (i.e., peptide affinity) and co-capping to the MHC and ICAM molecules directly on the live APC surface. […] Unlabeled peptide was used in a competition assay to derive the relative affinity of the BPI for the APC and the ability of the BPI to crosslink the MHC and ICAM molecules on the APC was examined by cocapping ICAM with an anti-MHC mAb. Here, cells were incubated with the BPI. Next, an anti-MHC mAb was added. After 30 minutes at 37° C., the cells were transferred to ice and stained with PE-labeled anti-ICAM (FIG. 7).
To obtain biotinylated BPI, the synthesized EGAD BPI was biotinylated with NHS-Biotin as described in Murray et al., 24 Eur. J. Immunol. 2337-2344 (1994). Spleen cell density-gradient fractions from normal (unimmunized) NOD, BALB/c and other MHC congenic strains were incubated in round bottom 96-well plates with increasing concentrations of individual biotinylated peptides at 37° C., 5% CO2 for 16 hours. Following binding of the BPI to the APC, Avidin-FITC was incubated with the cells on ice for 30 minutes, followed bybiotinylated anti-Avidin for 1 hour, then again with Avidin-FITC. For BPI titrations, increasing concentrations (0.1-100 μM) of the biotinylated derivatives in sterile 0.5% BSA-PBS were incubated with the APC for 16 hours as above. Three-color analyses used Cy-Chrome or PE-conjugated anti-B220 (mAb RA3-6B2 (CD45R B-cell marker), anti-MHC class II (KH74 or 10-3.62 mAb), or anti-ICAM-1 (3E2 mAb); (all purchased from PharMingen, San Diego, Calif.). Bound peptide was detected with avidin-FITC/biotinylated anti-avidin/avidin-FITC on live cells gated by forward/side scatter analysis. Controls contained all detecting reagents in absence of the biotinylated peptide; 20,000 events were analyzed for each histogram with a FACScan (Becton-Dickinson) flow cytometer.
To verify antigenic peptide binding to live APC, initial EGAD-BPI were screened for selective binding to NOD (I-A^g7) APC and assayed for simultaneous binding using monoclonal antibodies against either MHC-II or ICAM-1 by flow cytometry methods using live APC (Murray et al., 24 Eur. J. Immunol. 2337-2344 (1994); Murray; 19 Immunology Today 157-163; and Schountz et al., 157 The Journal of Immunology 3893-3901 (1996)). In this assay, increasing concentrations of the biotinylated-BPI, -CD11a(237-247) or -GAD65(208-217) peptide were incubated overnight with spleenocytes from each inbred strain. Bound peptide was detected with amplification of avidin-FITC fluorescence by the use of a biotinylated anti-avidin reagent, followed by a second round of avidin-FITC binding. Biotinylated peptide was incubated with 10^6 viable cells at a peptide concentrations of 50 μM. Bound peptide was detected with avidin-FITC/biotinylated anti-avidin-FITC. […]

[3] = system: MHC-II and ICAM-1 on NOD spleenocytes; test: Inhibition of biotinylated BPI binding to NOD spleenocytes by monoclonal antibodies to MHC-II or ICAM-1; set-up: species or system mouse; conditions: mAb 10-3.62 or 3E2 at 5 μg/ml
Experimental: Specifically, it was verified that the peptide binds to MHC molecules on live APC. Briefly, spleen cell density-gradient fractions (from mice), or PBL, or APC lines (from humans) were incubated in round bottom 96-well plates with increasing concentrations of individual biotinylated peptides at 37° C., 5% CO2 for 16 hours. Following binding of the BPI to the APC, Avidin-FITC was incubated with the cells on ice for 30 minutes, followed by biotinylated anti-Avidin for 1 hour, then again with Avidin-FITC. For BPI titrations, increasing concentrations (0.1-100 μM) of the biotinylated derivatives in sterile 0.5% BSA-PBS were incubated with the APC for 16 hours as above. […] Three-color analyses used Cy-Chrome or PE-conjugated antibodies to known surface markers of APC that were commercially available. Avidin-FITC and biotinylated anti-Avidin detection of the bound peptide was as previously described in Murray et al., 24 Eur. J. Immunol. 2337-2344 (1994); Murray; 19 Immunology Today 157-163; and Schountz et al., 157 The Journal of Immunology 3893-3901 (1996). […]
However, either purified 10-3.62 (anti-MHC-II) or 3E2 (anti-ICAM-1) were included in the overnight incubation of the spleen cells with the biotinylated BPI. […] Analyses were gated on forward/side scatter dotplots for live lymphocytes and 20,000 events were analyzed for each histogram.

In the case of “GAD65(208-217)-[Ac-G-Ac-G-Ac]-CD11a (237-247) (EIAPVFVLLE[Ahx]G[Ahx]G[Ahx]ITDGEATDSG) [EGAD-BPI]”, the “mice showing hyperglycemia and progression to diabetes” value [1] is reported as 40%, the “percentage of high-density binding cells” value ([2]; A.BY spleenocytes) is reported as 6% and the “percentage of high-density binding cells” value ([2]; NOD spleenocytes) is reported as 30%. For the same substance, the “preferential binding to NOD APC compared with other strains (BALB/c, A.SW, A.BY)” value [2] was “higher density”, the “preferential binding to NOD APC compared with other strains (BALB/c, A.SW, A.BY)” value ([2]; listed as GAD 65 BPI) was “binds preferentially to NOD APC” and the “BPI binding in presence of monoclonal antibody to MHC-II or ICAM-1” value [3] was “effectively block binding”. The “BPI binding in presence of monoclonal antibody to MHC-II or ICAM-1” value ([3]; listed as BPI) was “blocked BPI binding”.
